Experimental data taken from PubChem BioAssay AID270 (DTP/NCI, 2004).
Values joined by “and” are separate entries in the source; they are usually repeats but may differ in a detail not shown here. Equal values may be shown once. Inconclusive results are not listed.

System: BDF1 mice, s.c. Lewis lung carcinoma, T/C %
Test: NCI In Vivo Anticancer Drug Screen. Data for tumor model Lewis Lung Carcinoma (subcutaneous) in B6D2F1 (BDF1) mice
Method in brief: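 Readout: survival or tumor size, expressed as treated (T) over vehicle control (C). Transplantable tumor implanted in mice; compound given to the treated group.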

[1] = endpoint: median survival time, dose: 1.0 mg/kg/injection, schedule: Q01DX009 (ip), vehicle: Klucel (hydroxypropylcellulose) (HPC), higher = longer survival

Nc1nncs1
T/C (endpoint: median survival time, dose: 6.25 mg/kg/injection, schedule: Q01DX009 (ip), vehicle: Klucel (hydroxypropylcellulose) (HPC), higher = longer survival): 117 % of control and 122 % of control

COc1ccccc1NC(=O)N(CCCl)N=O
T/C (endpoint: median survival time, dose: 0.39 mg/kg/injection, schedule: Q01DX009 (ip), vehicle: saline with Tween-80, higher = longer survival): 95 % of control
T/C (endpoint: median survival time, dose: 0.78 mg/kg/injection, schedule: Q01DX009 (ip), vehicle: saline with Tween-80, higher = longer survival): 88 % of control
T/C (endpoint: median survival time, dose: 1.56 mg/kg/injection, schedule: Q01DX009 (ip), vehicle: saline with Tween-80, higher = longer survival): 93 % of control
T/C (endpoint: median survival time, dose: 3.13 mg/kg/injection, schedule: Q01DX009 (ip), vehicle: saline with Tween-80, higher = longer survival): 98 % of control

O=CC1CO1 (centres undefined)
T/C (endpoint: mean tumor weight, dose: 29.0 mg/kg/injection, schedule: Q01DX011 (ip), vehicle: saline, higher = larger tumour): 89 % of control
T/C (endpoint: mean tumor weight, dose: 44.0 mg/kg/injection, schedule: Q01DX011 (ip), vehicle: saline, higher = larger tumour): 44 % of control
T/C (endpoint: mean tumor weight, dose: 66.0 mg/kg/injection, schedule: Q01DX011 (ip), vehicle: saline, higher = larger tumour): 75 % of control

CCOC(=O)NC
T/C (endpoint: mean tumor weight, dose: 177.0 mg/kg/injection, schedule: Q01DX011 (ip), vehicle: saline, higher = larger tumour): 87 % of control
T/C (endpoint: mean tumor weight, dose: 266.0 mg/kg/injection, schedule: Q01DX011 (ip), vehicle: saline, higher = larger tumour): 83 % of control
T/C (endpoint: mean tumor weight, dose: 400.0 mg/kg/injection, schedule: Q01DX011 (ip), vehicle: saline, higher = larger tumour): 62 % of control
T/C (endpoint: mean tumor weight, dose: 600.0 mg/kg/injection, schedule: Q01DX011 (ip), vehicle: saline, higher = larger tumour): 44 % of control

O=C(O)O.[Cd]
T/C (endpoint: mean tumor weight, dose: 0.5 mg/kg/injection, schedule: Q01DX011 (ip), vehicle: carboxymethylcellulose (CMC), higher = larger tumour): 72 % of control

C=C(C)C12CC(C)C34OC5(CCCCCCCC(C)C6C(C)C(OC(=O)c7ccccc7)C(O)(C(O)C7(COC(=O)CCCCCCCCCCCCCCC)OC7C3C1O5)C64)O2 (centres undefined)
T/C (endpoint: median survival time, dose: 1.0 micrograms/kg/injection, schedule: Q01DX009 (ip), vehicle: Klucel (hydroxypropylcellulose) (HPC), higher = longer survival): 93 % of control
T/C (endpoint: median survival time, dose: 1.9 micrograms/kg/injection, schedule: Q01DX009 (ip), vehicle: Klucel (hydroxypropylcellulose) (HPC), higher = longer survival): 209 % of control
T/C (endpoint: median survival time, dose: 2.0 micrograms/kg/injection, schedule: Q01DX009 (ip), vehicle: Klucel (hydroxypropylcellulose) (HPC), higher = longer survival): 86 % of control
T/C (endpoint: median survival time, dose: 3.8 micrograms/kg/injection, schedule: Q01DX009 (ip), vehicle: Klucel (hydroxypropylcellulose) (HPC), higher = longer survival): 208 % of control
T/C (endpoint: median survival time, dose: 4.0 micrograms/kg/injection, schedule: Q01DX009 (ip), vehicle: Klucel (hydroxypropylcellulose) (HPC), higher = longer survival): 97 % of control
T/C (endpoint: median survival time, dose: 7.5 micrograms/kg/injection, schedule: Q01DX009 (ip), vehicle: Klucel (hydroxypropylcellulose) (HPC), higher = longer survival): 209 % of control
T/C (endpoint: median survival time, dose: 8.0 micrograms/kg/injection, schedule: Q01DX009 (ip), vehicle: Klucel (hydroxypropylcellulose) (HPC), higher = longer survival): 96 % of control
T/C (endpoint: median survival time, dose: 15.0 micrograms/kg/injection, schedule: Q01DX009 (ip), vehicle: Klucel (hydroxypropylcellulose) (HPC), higher = longer survival): 101 % of control
T/C (endpoint: median survival time, dose: 16.0 micrograms/kg/injection, schedule: Q01DX009 (ip), vehicle: Klucel (hydroxypropylcellulose) (HPC), higher = longer survival): 88 % of control

CC1OC(O[C@@H]2C=C3CC[C@@H]4[C@H](CC[C@]5(C)[C@@H](c6ccc(=O)oc6)CC[C@]45O)[C@@]3(C)CC2)C(O)C(OC2OC(CO)C(O)C(O)C2O)C1O (some centres undefined)
T/C (endpoint: mean tumor weight, dose: 1.2 mg/kg/injection, schedule: Q01DX011 (ip), vehicle: carboxymethylcellulose (CMC), higher = larger tumour): 106 % of control
T/C (endpoint: mean tumor weight, dose: 2.5 mg/kg/injection, schedule: Q01DX011 (ip), vehicle: carboxymethylcellulose (CMC), higher = larger tumour): 102 % of control
T/C (endpoint: mean tumor weight, dose: 5.0 mg/kg/injection, schedule: Q01DX011 (ip), vehicle: carboxymethylcellulose (CMC), higher = larger tumour): 80 % of control

Nc1nc(=S)c2[nH]cnc2[nH]1
T/C (endpoint: median survival time, dose: 0.5 mg/kg/injection, schedule: Q01DX009 (ip), vehicle: Klucel (hydroxypropylcellulose) (HPC), higher = longer survival): 108 % of control
T/C [1]: 117 % of control
T/C (endpoint: median tumor weight (est.), dose: 0.67 mg/kg/injection, schedule: Q01DX011 (ip), vehicle: alkali diluted with saline, higher = larger tumour): 80 % of control
T/C (endpoint: median tumor weight (est.), dose: 1.0 mg/kg/injection, schedule: Q01DX011 (ip), vehicle: alkali diluted with saline, higher = larger tumour): 24 % of control

C[n+]1ccc(Nc2ccc(NC(=O)c3ccc(Nc4cc[n+](C)c5ccc(N)cc45)cc3)cc2)cc1
T/C [1]: 167 % of control
T/C (endpoint: median survival time, dose: 8.0 mg/kg/injection, schedule: Q01DX009 (ip), vehicle: Klucel (hydroxypropylcellulose) (HPC), higher = longer survival): 244 % of control

C=C1C(=O)O[C@@H]2[C@H]3O[C@]3(C)CCC=C(C)CC[C@@H]12
T/C (endpoint: median survival time, dose: 12.5 mg/kg/injection, schedule: Q01DX009 (ip), vehicle: Klucel (hydroxypropylcellulose) (HPC), higher = longer survival): 110 % of control
T/C (endpoint: median survival time, dose: 25.0 mg/kg/injection, schedule: Q01DX009 (ip), vehicle: Klucel (hydroxypropylcellulose) (HPC), higher = longer survival): 97 % of control
T/C (endpoint: median survival time, dose: 50.0 mg/kg/injection, schedule: Q01DX009 (ip), vehicle: Klucel (hydroxypropylcellulose) (HPC), higher = longer survival): 93 % of control
